Measurements as given in ChEMBL document CHEMBL1649585, “Role of the Mycobacterium tuberculosis P55 efflux pump in intrinsic drug resistance, oxidative stress responses, and growth” (2009).

How the values were obtained:
Format in all cases: functional
[1] = system: Mycobacterium tuberculosis; test: Upregulation of p55 gene expression Mycobacterium tuberculosis by microarray
[2] = system: Mycobacterium tuberculosis; test: Downregulation of p27 gene expression Mycobacterium tuberculosis by microarray
[3] = system: Mycobacterium tuberculosis; test: Upregulation of p27 gene expression in Mycobacterium tuberculosis by microarray
[4] = system: Mycobacterium tuberculosis; test: Downregulation of p55 gene expression Mycobacterium tuberculosis by microarray

Measured: fold change (FC)

CN(C)CCCN1c2ccccc2Sc2ccc(Cl)cc21 [CHLORPROMAZINE]
>=2: all assays above

CC(C)/N=c1\cc2n(-c3ccc(Cl)cc3)c3ccccc3nc-2cc1Nc1ccc(Cl)cc1 [CLOFAZIMINE]
>=2: all assays above

CC1=CC(=O)c2ccccc2C1=O [MENADIONE]
>=2: all assays above

CO[C@@H]1[C@@H](OC(N)=O)[C@@H](O)[C@H](Oc2ccc3c(O)c(NC(=O)c4ccc(O)c(CC=C(C)C)c4)c(=O)oc3c2C)OC1(C)C [NOVOBIOCIN]
>=2: all assays above

O=[N+]([O-])c1cn2c(n1)OC[C@@H](OCc1ccc(OC(F)(F)F)cc1)C2 [PRETOMANID]
>=2: all assays above

CSc1ccc2c(c1)N(CCC1CCCCN1C)c1ccccc1S2 (configuration not stated) [THIORIDAZINE]
>=2: all assays above

Oc1cc(Cl)ccc1Oc1ccc(Cl)cc1Cl [TRICLOSAN]
>=2: all assays above

CC(C)[C@@H]1NC(=O)[C@H](C)OC(=O)[C@@H](C(C)C)NC(=O)[C@@H](C(C)C)OC(=O)[C@H](C(C)C)NC(=O)[C@H](C)OC(=O)[C@@H](C(C)C)NC(=O)[C@@H](C(C)C)OC(=O)[C@H](C(C)C)NC(=O)[C@H](C)OC(=O)[C@@H](C(C)C)NC(=O)[C@@H](C(C)C)OC1=O [VALINOMYCIN]
>=2: all assays above
